# Reference: patent publication EP2999467B1, “USE OF A COMBINATION OF TWO COMPOUNDS FOR THE TREATMENT AND/OR PREVENTION OF BONE DISORDERS” (Institut National de la Recherche Agronomique (INRA), priority 2013, dated 2014)
# Like-named read-outs stand apart in the source and are kept apart here.
# How the values were obtained:
# [1] = test system: RAW264.7; test: TRAP staining: RANKL-induced osteoclast differentiation, count of multinucleated TRAP+ cells; type: cell-based
# Description: (§1) Les préostéoblastes primaires ont été isolés à partir de la calotte crânienne de rats Wistar nouveaux-nés par digestion enzymatique comme précédemment décrit [Declercq, H., Van den Vreken, N., De Maeyer, E., Verbeeck, R., Schacht, E., De Ridder, L., and Cornelissen, M. (2004). Isolation, proliferation and differentiation of osteoblastic cells to study cell/biomaterial interactions: comparison of different isolation techniques and source. Biomaterials 25, 757-68.]. Les précurseurs d'ostéoclastes RAW264.7 ont été obtenus auprès de l'ATCC (Manassas, VA, USA). Les préostéoblastes et les RAW264.7 ont été cultivés dans du milieu α-MEM (Invitrogen, Carlsbad, CA, USA) supplémenté avec 10% de SVF décomplémenté et de 100 unités/ml de pénicilline-streptomycine.
# Pour la coloration TRAP, 60.000 cellules RAW264.7 ont été ensemencées dans des puits de plaques 12 puits pendant 12 heures puis traitées avec du DMSO/éthanol comme témoin ou de la fisétine (5 µM dans le DMSO) ou du DHA (50µM dans l'éthanol) ou la combinaison des deux (Fisétine 5 µM et DHA 50 µM) pendant 3 heures. Les cellules ont ensuite été induites à se différencier en présence de RANKL (50 ng/ml) avec du DMSO/éthanol ou de la fisétine (5 µM) ou du DHA (50 µM) ou la combinaison des deux (Fisétine 5 µM et DHA 50 µM) durant 4 jours avec un changement de milieux après 2 jours. De la BSA délipidée et sans endotoxines a été utilisée pour solubiliser le DHA avec un rapport 1/5 (BSA/DHA).
# La coloration TRAP a été réalisée en utilisant le kit « leukocyte acid phosphatase » (Sigma-Aldrich) selon les recommandations du fournisseur après fixation des cellules. Les cellules TRAP+ multinucléées ont ensuite été comptées.
# [2] = test system: ostéocalcine; test: Quantitative RT-PCR, osteoblast differentiation marker: osteocalcin; type: cell-based, rats Wistar; details: Rattus norvegicus; for activation at 5 µM: AA+βGP+Fisétine 5µM
# Description: as §1
# L'extraction des ARN totaux (cellules et fémurs) a été effectuée en utilisant le réactif TRIzol, la transcription inverse (RT) a été réalisée à l'aide du kit de synthèse d'ADNc Dynamo (Thermo Scientific, Waltham, MA, USA) et l'analyse PCR en temps réel a été réalisée avec le Mastercycler ep Realplex2 (Eppendorf, Hambourg, Allemagne). Toutes les valeurs ont été normalisées par la GAPDH. Les séquences des oligos utilisés sont : ALP F 5'-GGCCAGCTACACCACAACA-3' / ALP R 5'-[…] -3' / OCN F 5'-AGACTCCGGCGCTACCTT -3' / OCN R 5'-[…]-3'/ COL1 F 5'-[…]-3' / COL1 R 5'-[…]-3' / GAPDH F 5'-[…]-3' / GAPDH R 5'-[…]-3'
# [3] = test system: perte osseuse induite par ovariectomie; test: Ovariectomy-induced bone loss: bone micro-architecture (micro-CT); type: in vivo, souris C57BL/6J
# Protocol: Tout au long de l'étude, les animaux ont été logés dans un environnement contrôlé (12:12 h cycle lumière-obscurité, 20-22 ° C, 50-60% d'humidité relative, 1 souris par cage en plastique avec un accès libre à l'eau. Les souris C57BL/6J ont été livrées 2 semaines avant l'étude pour l'acclimatation à notre environnement sous régime standard semi-purifié. Pour toutes les expériences, les souris de 8 semaines (n=12/groupe) ont été gavées avec le véhicule (1% d'éthanol, 0,2% hydroxypropylcellulose dans de l'eau distillée) ou avec la fisétine (5 à 50 mg/kg dans le véhicule) pendant une semaine. Ensuite, pour l'expérience OVX, les souris ont été pseudo-opérées ou ovariectomisées bilatéralement et ont reçu quotidiennement par gavage le véhicule ou la fisétine pendant 4 semaines. A la fin de l'expérimentation, le sérum, les cornes utérines, les tibias et les fémurs ont été recueillis pour analyse. Pour l'expérience de perte osseuse induite par LPS, le véhicule (PBS) ou le LPS (sérotype 026: B6, 25mg/kg) ont été injectés par voie sous-cutanée au niveau de la calotte crânienne, une fois par semaine pendant 3 semaines sous anesthésie. Durant ces 3 semaines, les souris ont reçu soit le véhicule (1% d'éthanol, 0,2% hydroxypropylcellulose dans de l'eau distillée) soit la fisétine quotidiennement par gavage. A la fin de l'expérimentation, le sérum, les tibias et les fémurs ont été recueillis pour analyse. Des expériences similaires ont été conduites et arrêtés 24 heures après la première injection de LPS et les fémurs ont été prélevés pour extraction des ARNs et l'analyse en qRT-PCR.
# Pour effectuer une mesure, l'échantillon a été monté sur un plateau tournant pouvant être déplacé automatiquement dans le sens axial (pas angulaire: 0,675°/reconstruction plage angulaire: 186.30°). Un filtre en aluminium (0,5 mm d'épaisseur) a été placé entre la source de rayons X et l'échantillon. La micro-architecture (spongieuse secondaire) a été analysée en utilisant le rayonnement X micro-CT SkyScan 1072 (BRUKER-microCT, Kontich, Belgique). Des photos de 1024 * 1024 pixels ont été obtenues en utilisant les paramètres 37kV et 215µA. Selon les paramètres de la caméra, les pixels mesurent 5.664µm menant à un voxel de 1.817 * 10-7mm^3. Le calcul des paramètres histomorphométriques a été réalisé en utilisant les logiciels ctan ® et Nrecon ® (version 1.11. Et 1.6.1.7 respectivement).
smiles,measurement,setting,value
"O=c1c(O)c(-c2ccc(O)c(O)c2)oc2cc(O)ccc12 [Fisétine, 3,3',4',7-tétrahydroxyflavone]",inhibition at 5 µM,"[1]; Mus musculus, RAW264.7, 96 h, Fisétine 5µM, RANKL 50 ng/ml, 4 days, vs RANKL condition, read-out: inhibition de l'induction par RANKL de la formation de cellules multinucléées TRAP+ (ostéoclastes)",45%
same,ostéoclastes/cm^2,"[1]; condition RANKL+Fisétine (5µM), RANKL alone 735+/-251",404+/-148 ostéoclastes/cm^2
same,activation at 1 µM,"[2]; 168 h, AA+βGP+Fisétine 1 µM, J7, read-out: expression de l'ostéocalcine par rapport à la condition « AA+βGP seuls »",63%
same,activation at 5 µM,"[2]; 168 h, J7, read-out: expression de l'ostéocalcine par rapport à la condition « AA+βGP seuls »",177%
same,activation at 1 µM,"[2]; 336 h, AA+βGP+Fisétine 1µM, J14, read-out: expression de l'ostéocalcine par rapport à la condition « AA+βGP seuls »",63%
same,activation at 5 µM,"[2]; 336 h, J14, read-out: expression de l'ostéocalcine par rapport à la condition « AA+βGP seuls »",131%
same,augmentation de l'épaisseur des trabécules par rapport aux animaux OVX,[3]; OVX + Fisétine 25 mg/kg,"3,55%"
same,augmentation du nombre de trabécules par rapport aux animaux OVX,[3]; OVX + Fisétine 25 mg/kg,"16,31%"
same,augmentation du volume osseux/volume total par rapport aux animaux OVX,[3]; OVX + Fisétine 25 mg/kg,"20,37%"
same,Nombre de trabécules,"[3]; OVX + Fisétine 25mg/kg, OVX 1.90 ± 0.22",2.21 ± 0.12 mm^-1
same,Volume osseux/Volume total,"[3]; OVX + Fisétine 25mg/kg, OVX 13.40 ± 1.74",16.13 ± 0.96%
same,Epaisseur des trabécules,"[3]; OVX + Fisétine 25mg/kg, OVX 70.35 ± 1.295",72.85 ± 1.563 µm
same,Espace inter-trabéculaire,"[3]; OVX + Fisétine 25mg/kg, OVX 285.68 ± 54,69",265.50 ± 29.41 µm
